EC50 data for 15 compounds are collected here from patent publication US9499550B2 (BRISTOL-MYERS SQUIBB COMPANY, priority 2012, dated 2016).

Test [1] has as its system HCV genotype 1a (H77 strain) replicon in HUH-7 cells. Kind of test: HCV replicon luciferase reporter assay, genotype 1a. It is filed as cell-based. The following applies: Hepatitis C virus, Huh-7, 72 h, HCV genotype 1a replicon luciferase, 3 days incubation. The method in brief:
(§1)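 Replicon inhibition for both genotypes was measured as Renilla luciferase signal (EnduRen, 7.5 μM final, 2 h) after 3-day, 37° C exposure of replicon-bearing HUH-7 cells in 4% FCS DMEM, 0.5% DMSO. The 1b construct carries S1179I; the 1a H77 construct carries P1496L and S2204I. Twenty-point, 3-fold dilutions were fitted four-parametrically for EC50, and CC50 was taken from multiplexed Cell Titer-Blue.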

For test [2], the system named is HCV genotype 1b (Con1) replicon in HUH-7 cells. Kind of test: HCV replicon luciferase reporter assay, genotype 1b. The conditions noted are these: Hepatitis C virus, Huh-7, 72 h, HCV genotype 1b replicon luciferase, 3 days incubation. In kind it is cell-based. The method in brief:
as §1
Background: Replicon systems follow genome replication, usually without infectious particles.

[3] abbreviates: GETYPE1A, read-out: LE_1a (EC50, range).
Where [4] appears, read: GETYPE1B, read-out: LE_1b (EC50, range).

Usually EC50 stands for the concentration at which the effect is half-maximal.

Read-outs that look alike come from different tables or passages of the source.

As to `CC[C@@H]1C[C@H](C)CC/C=C\[C@@H]2C[C@@]2(C(=O)NS(=O)(=O)C2(C)CC2)NC(=O)[C@@H]2C[C@@H](Oc3cc4nc(OC)c(C(F)(F)F)nc4cc3OC)CN2C(=O)[C@H]1NC(=O)OC(C)(C)C` [Compound 4365, tert-butyl ((2R,6S,7R,9R,13aS,14aR,16aS,Z)-2-((3,7-dimethoxy-2-(trifluoromethyl)quinoxalin-6-yl)oxy)-7-ethyl-9-methyl-14a-(((1-methylcyclopropyl)sulfonyl)carbamoyl)-5,16-dioxo-1,2,3,5,6,7,8,9,10,11,13a,14,14a,15,16,16a-hexadecahydrocyclopropa[e]pyrrolo[1,2-a][1,4]diazacyclopentadecin-6-yl)carbamate], the EC50 in test [1] (read-out: LE_1a (EC50, range)) lay in the range of 5.01 to 35 nM; in test [2] (read-out: LE_1b (EC50, range)), 5.01 to 35 nM.
Take `COc1ccc2nc(C)c(O[C@@H]3C[C@H]4C(=O)N[C@]5(C(=O)NS(=O)(=O)C6(C)CC6)C[C@H]5/C=C\CC[C@@H](C)C[C@@H](C)[C@H](NC(=O)OC(C)(C)C(F)(F)F)C(=O)N4C3)nc2c1` [Compound 4366]: the EC50 in test [1] (GETYPE1A, read-out: LE_1a (EC50)) was 0.58 nM; in test [1] (setting [3]) it was 0.51 to 1 nM; in test [2] (GETYPE1B, read-out: LE_1b (EC50)) it was 0.25 nM; in test [2] (setting [4]), 0.1 to 0.5 nM.
As to `COc1ccc2nc(OC)c(O[C@@H]3C[C@H]4C(=O)N[C@]5(C(=O)NS(=O)(=O)C6(C)CC6)C[C@H]5/C=C\CC[C@@H](C)C[C@@H](C)[C@H](NC(=O)OC(C)(C)C)C(=O)N4C3)cc2c1` [Compound 4373, tert-butyl ((2R,6S,7R,9R,13aS,14aR,16aS,Z)-2-((2,6-dimethoxyquinolin-3-yl)oxy)-7,9-dimethyl-14a-(((1-methylcyclopropyl)sulfonyl)carbamoyl)-5,16-dioxo-1,2,3,5,6,7,8,9,10,11,13a,14,14a,15,16,16a-hexadecahydrocyclopropa[e]pyrrolo[1,2-a][1,4]diazacyclopentadecin-6-yl)carbamate], the EC50 in test [1] (read-out: LE_1a (EC50, range)) lay in the range of 0.1 to 0.5 nM; in test [2] (read-out: LE_1b (EC50, range)) it was 0.1 to 0.5 nM.
Turning to `COc1ccc2c(O[C@@H]3C[C@H]4C(=O)N[C@]5(C(=O)NS(=O)(=O)C6(C)CC6)C[C@H]5/C=C\CC[C@@H](C)C[C@@H](C)[C@H](NC(=O)OC(C)(C)C)C(=O)N4C3)ncc(F)c2c1` [Compound 4374, tert-butyl ((2R,6S,7R,9R,13aS,14aR,16aS,Z)-2-((4-fluoro-6-methoxyisoquinolin-1-yl)oxy)-7,9-dimethyl-14a-(((1-methylcyclopropyl)sulfonyl)carbamoyl)-5,16-dioxo-1,2,3,5,6,7,8,9,10,11,13a,14,14a,15,16,16a-hexadecahydrocyclopropa[e]pyrrolo[1,2-a][1,4]diazacyclopentadecin-6-yl)carbamate], the EC50 in test [1] (read-out: LE_1a (EC50, range)) lay in the range of 1.01 to 5 nM; in test [2] (read-out: LE_1b (EC50, range)), 0.1 to 0.5 nM.
As for `COc1ccc2c(Cl)ncc(O[C@@H]3C[C@H]4C(=O)N[C@]5(C(=O)NS(=O)(=O)C6(C)CC6)C[C@H]5/C=C\CC[C@@H](C)C[C@@H](C)[C@H](NC(=O)OC(C)(C)C)C(=O)N4C3)c2c1` [Compound 4375, tert-butyl ((2R,6S,7R,9R,13aS,14aR,16aS,Z)-2-((1-chloro-6-methoxyisoquinolin-4-yl)oxy)-7,9-dimethyl-14a-(((1-methylcyclopropyl)sulfonyl)carbamoyl)-5,16-dioxo-1,2,3,5,6,7,8,9,10,11,13a,14,14a,15,16,16a-hexadecahydrocyclopropa[e]pyrrolo[1,2-a][1,4]diazacyclopentadecin-6-yl)carbamate], the EC50 was 1.01 to 5 nM in test [1] (read-out: LE_1a (EC50, range)) and 0.51 to 1 nM in test [2] (read-out: LE_1b (EC50, range)).
On the same counts, the results for `COc1ccc2nc(OC)c(O[C@@H]3C[C@H]4C(=O)N[C@]5(C(=O)NS(=O)(=O)C6(CF)CC6)C[C@H]5/C=C\CC[C@@H](C)C[C@@H](C)[C@H](NC(=O)OC(C)(C)C)C(=O)N4C3)cc2c1` [Compound 4376, tert-butyl ((2R,6S,7R,9R,13aS,14aR,16aS,Z)-2-((2,6-dimethoxyquinolin-3-yl)oxy)-14a-(((1-(fluoromethyl)cyclopropyl)sulfonyl)carbamoyl)-7,9-dimethyl-5,16-dioxo-1,2,3,5,6,7,8,9,10,11,13a,14,14a,15,16,16a-hexadecahydrocyclopropa[e]pyrrolo[1,2-a][1,4]diazacyclopentadecin-6-yl)carbamate] are 1.01 to 5 nM and 0.1 to 0.5 nM.
Regarding `CC[C@@H]1C[C@H](C)CC/C=C\[C@@H]2C[C@@]2(C(=O)NS(=O)(=O)C2(C)CC2)NC(=O)[C@@H]2C[C@@H](Oc3cc4cc(OC)ccc4nc3OC)CN2C(=O)[C@H]1NC(=O)OC(C)(C)C` [Compound 4377, tert-butyl ((2R,6S,7R,9R,13aS,14aR,16aS,Z)-2-((2,6-dimethoxyquinolin-3-yl)oxy)-7-ethyl-9-methyl-14a-(((1-methylcyclopropyl)sulfonyl)carbamoyl)-5,16-dioxo-1,2,3,5,6,7,8,9,10,11,13a,14,14a,15,16,16a-hexadecahydrocyclopropa[e]pyrrolo[1,2-a][1,4]diazacyclopentadecin-6-yl)carbamate], the EC50 in test [1] (read-out: LE_1a (EC50, range)) fell in the range of 0.51 to 1 nM; in test [2] (read-out: LE_1b (EC50, range)), 0.1 to 0.5 nM.
Turning to `COc1ccc2c(O[C@@H]3C[C@H]4C(=O)N[C@]5(C(=O)NS(=O)(=O)C6(CF)CC6)C[C@H]5/C=C\CC[C@@H](C)C[C@@H](C)[C@H](NC(=O)OC(C)(C)C(F)(F)F)C(=O)N4C3)ncc(F)c2c1` [Compound 4378], the EC50 in test [1] (setting [3]) lay in the range of 1.01 to 5 nM; in test [2] (setting [4]), 0.51 to 1 nM.
The corresponding values for `CC[C@@H]1C[C@H](C)CC/C=C\[C@@H]2C[C@@]2(C(=O)NS(=O)(=O)C2(C)CC2)NC(=O)[C@@H]2C[C@@H](Oc3ncc(F)c4cc(OC)ccc34)CN2C(=O)[C@H]1NC(=O)OC(C)(C)C(F)(F)F` [Compound 4379] are 1.01 to 5 nM and 0.51 to 1 nM.
In the case of `COc1ccc2c(Cl)ncc(O[C@@H]3C[C@H]4C(=O)N[C@]5(C(=O)NS(=O)(=O)C6(CF)CC6)C[C@H]5/C=C\CC[C@@H](C)C[C@@H](C)[C@H](NC(=O)OC(C)(C)C)C(=O)N4C3)c2c1` [Compound 4380], the EC50 in test [1] (read-out: LE_1a (EC50, range)) was in the range of 1.01 to 5 nM; in test [2] (read-out: LE_1b (EC50, range)) it was 1.01 to 5 nM.
Consider `CC[C@@H]1C[C@H](C)CC/C=C\[C@@H]2C[C@@]2(C(=O)NS(=O)(=O)C2(C)CC2)NC(=O)[C@@H]2C[C@@H](Oc3ncc(Cl)c4ccc(OC)cc34)CN2C(=O)[C@H]1NC(=O)OC(C)(C)C` [Compound 4381], for which the EC50 lay in the range of 1.01 to 5 nM in test [1] (read-out: LE_1a (EC50, range)) and 0.51 to 1 nM in test [2] (read-out: LE_1b (EC50, range)).
Regarding `COc1ccc2c(O[C@@H]3C[C@H]4C(=O)N[C@]5(C(=O)NS(=O)(=O)C6(CF)CC6)C[C@H]5/C=C\CC[C@@H](C)C[C@@H](C)[C@H](NC(=O)OC(C)(C)C)C(=O)N4C3)ncc(F)c2c1` [Compound 4382, tert-butyl ((2R,6S,7R,9R,13aS,14aR,16aS,Z)-2-((4-fluoro-6-methoxyisoquinolin-1-yl)oxy)-14a-(((1-(fluoromethyl)cyclopropyl)sulfonyl)carbamoyl)-7,9-dimethyl-5,16-dioxo-1,2,3,5,6,7,8,9,10,11,13a,14,14a,15,16,16a-hexadecahydrocyclopropa[e]pyrrolo[1,2-a][1,4]diazacyclopentadecin-6-yl)carbamate], the EC50 is 1.01 to 5 nM in test [1] (read-out: LE_1a (EC50, range)) and 0.51 to 1 nM in test [2] (read-out: LE_1b (EC50, range)).
On the same counts, the results for `CC[C@@H]1C[C@H](C)CC/C=C\[C@@H]2C[C@@]2(C(=O)NS(=O)(=O)C2(C)CC2)NC(=O)[C@@H]2C[C@@H](Oc3ncc(F)c4cc(OC)ccc34)CN2C(=O)[C@H]1NC(=O)OC(C)(C)C` [Compound 4383, tert-butyl ((2R,6S,7R,9R,13aS,14aR,16aS,Z)-7-ethyl-2-((4-fluoro-6-methoxyisoquinolin-1-yl)oxy)-9-methyl-14a-(((1-methylcyclopropyl)sulfonyl)carbamoyl)-5,16-dioxo-1,2,3,5,6,7,8,9,10,11,13a,14,14a,15,16,16a-hexadecahydrocyclopropa[e]pyrrolo[1,2-a][1,4]diazacyclopentadecin-6-yl)carbamate] are 1.01 to 5 nM and 0.51 to 1 nM.
On the same counts, the results for `COc1ccc(-c2nc(O[C@@H]3C[C@H]4C(=O)N[C@]5(C(=O)NS(=O)(=O)C6CC6)C[C@H]5/C=C\CC[C@H](C)C[C@@H](C)[C@H](NC(=O)OC(C)(C)C)C(=O)N4C3)c3ccc(OC)cc3n2)cc1` [Compound 5001, tert-butyl ((2R,6S,7R,9S,13aS,14aR,16aS,Z)-14a-((cyclopropylsulfonyl)carbamoyl)-2-((7-methoxy-2-(4-methoxyphenyl)quinazolin-4-yl)oxy)-7,9-dimethyl-5,16-dioxo-1,2,3,5,6,7,8,9,10,11,13a,14,14a,15,16,16a-hexadecahydrocyclopropa[e]pyrrolo[1,2-a][1,4]diazacyclopentadecin-6-yl)carbamate] are < 5.46 nM and < 5.46 nM.
As for `COc1ccc(-c2nc(O[C@@H]3C[C@H]4C(=O)N[C@]5(C(=O)NS(=O)(=O)C6CC6)C[C@H]5/C=C\CC[C@@H](C)C[C@@H](C)[C@H](NC(=O)OC(C)(C)C)C(=O)N4C3)c3ccc(OC)cc3n2)cc1` [Compound 5002, tert-butyl ((2R,6S,7R,9R,13aS,14aR,16aS,Z)-14a-((cyclopropylsulfonyl)carbamoyl)-2-((7-methoxy-2-(4-methoxyphenyl)quinazolin-4-yl)oxy)-7,9-dimethyl-5,16-dioxo-1,2,3,5,6,7,8,9,10,11,13a,14,14a,15,16,16a-hexadecahydrocyclopropa[e]pyrrolo[1,2-a][1,4]diazacyclopentadecin-6-yl)carbamate], the EC50 in test [1] (read-out: LE_1a (EC50, range)) was < 5.46 nM; in test [2] (read-out: LE_1b (EC50, range)), < 5.46 nM.
